Test system: crude enzymes (CEs) of Sphingopyxis sp. USTB-05
Assay type: in vitro ADME
Conditions: NOD 11.6 mg/L with CEs 570 mg/L protein, 30 °C, HPLC-UV 238 nm; for fate of the biodegradation product in the presence of CEs: followed to 36 h
Experimental: Bacterial cells of USTB-05 in the logarithmic growth phase of the third day were harvested by centrifugation at 8000 r/min for 20 min at room temperature. The bacterial pellet was subsequently washed three times with 50 mM phosphate buffer solution (PBS, pH 7.0). Afterwards, the cells were resuspended in 30 mL PBS, and then disrupted using an ultrasonic disruptor with an output power of 600 W for 15 min in an ice bath. […].
The total biodegradation reaction volume was 5 mL containing 570 mg/L, 380 mg/L, and 211 mg/L proteins in PBS in each 10 mL centrifuge tube, respectively. […]. The reaction was performed at 30 °C and 200 r/min. Samples of 500 μL for each were taken after 0, 3, 6, 12, 24, and 36 h, respectively, and then 5 μL of concentrated hydrochloric acid (36%, v/v) was added to stop the reaction. A control bottle was prepared in the same way without CEs. All samples were centrifuged at 13,000 r/min for 10 min and then the concentrations of residual NOD and its products in supernatants were analyzed using HPLC. All experiments were carried out in triplicate.
NOD and its enzymatic biodegradation products were firstly analyzed using a HPLC system (Shimadzu LC-10ATVP, Shimadzu Co., Ltd., Kyoto, Japan) with an ultraviolet (UV) Diode Array Detector at 238 nm using a Agilent TC-C18 column (4.6 mm × 250 mm) (Agilent Technologies Inc., 1200 series, Santa Clara, CA, USA). […]. The flow rate was 1 mL/min and the injection amount was 20 μL. The concentration of NOD was determined by calibration of peak area (at 238 nm) with that of the standard NOD. The biodegradation products that contained Adda were monitored by HPLC based on the assumption that their molar absorption coefficient at 238 nm is the same as NOD.

In the case of `CC=C(C(=O)N[C@@H](C(=O)O)[C@H](C)C(=O)N[C@@H](CCCNC(=N)N)C(=O)O)N(C)C(=O)CC[C@@H](NC(=O)[C@@H](C)[C@@H](N)/C=C/C(C)=C/[C@H](C)[C@H](Cc1ccccc1)OC)C(=O)O` [product A], the “time at which the product peak appeared on HPLC during enzymatic biodegradation of NOD” value was 3 h and the “fate of the biodegradation product in the presence of CEs” value was “completely converted to product B”.

In the case of `CO[C@@H](Cc1ccccc1)[C@@H](C)/C=C(C)/C=C/[C@H](N)[C@H](C)C(=O)O` [product B, (2S,3S,8S,9S)-3-amino-9-methoxy-2,6,8-trimethyl-10-phenyldeca-4(E),6(E)-dienoic acid], the “time at which the product peak appeared on HPLC during enzymatic biodegradation of NOD” value was 6 h and the “fate of the biodegradation product in the presence of CEs” value was “always increased over time until 36 h”.
